Assay results taken from ChEMBL document CHEMBL1129015, “The design, binding affinity prediction and synthesis of macrocyclic angiotensin II AT1 and AT2 receptor antagonists” (Bioorg Med Chem Lett, 1996).

How the values were obtained:
[1] = target: T1, Type-1 angiotensin II receptor (Oryctolagus cuniculus, UniProt P34976); assay: Inhibition of [125I]-Sar1-Ile8-Ang II binding to Angiotensin II receptor type 1 from rabbit aorta
T1 sequence (P34976 whole entry): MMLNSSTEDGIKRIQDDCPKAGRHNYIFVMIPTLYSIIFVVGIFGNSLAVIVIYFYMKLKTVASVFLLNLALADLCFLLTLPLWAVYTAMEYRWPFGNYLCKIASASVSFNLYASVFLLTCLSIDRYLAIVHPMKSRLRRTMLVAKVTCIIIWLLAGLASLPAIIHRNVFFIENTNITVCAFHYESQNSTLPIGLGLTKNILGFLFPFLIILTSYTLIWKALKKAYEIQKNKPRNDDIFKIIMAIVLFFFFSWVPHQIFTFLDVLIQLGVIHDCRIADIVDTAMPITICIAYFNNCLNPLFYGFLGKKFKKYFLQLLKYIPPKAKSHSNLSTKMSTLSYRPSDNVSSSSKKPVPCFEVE

[2] = target: T2, Type-2 angiotensin II receptor (Rattus norvegicus, UniProt P35351); assay: Inhibition of [125I]-Sar1-Ile8-Ang II binding to rat midbrain Angiotensin II receptor type 2
T2 sequence (P35351 whole entry): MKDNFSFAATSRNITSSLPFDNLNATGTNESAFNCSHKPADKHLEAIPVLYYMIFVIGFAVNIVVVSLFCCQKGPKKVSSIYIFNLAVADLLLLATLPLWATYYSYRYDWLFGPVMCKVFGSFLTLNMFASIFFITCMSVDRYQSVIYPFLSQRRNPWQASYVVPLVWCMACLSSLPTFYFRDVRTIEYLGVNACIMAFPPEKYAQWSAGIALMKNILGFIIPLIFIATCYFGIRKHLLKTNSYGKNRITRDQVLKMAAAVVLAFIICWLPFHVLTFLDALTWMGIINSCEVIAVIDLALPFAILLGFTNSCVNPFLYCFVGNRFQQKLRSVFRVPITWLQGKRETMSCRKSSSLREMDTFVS

Row | Compound | IC50 [1] [nM] | IC50 [2] [nM]
1 | CCCc1nc2ccc3cc2c(=O)n1Cc1ccc(cc1)-c1ccccc1S(=O)(=O)NC(=O)CCCCCN3C(=O)OCc1ccccc1 | 23 | 4000
2 | CCCc1nc2ccc3cc2c(=O)n1Cc1ccc(cc1)-c1ccccc1S(=O)(=O)NC(=O)CCCCCCCN3 | 0.3 | 200
3 | CCCc1ccc2c(c1)-c1ccc(cc1)Cn1c(CCC)nc3ccc(cc3c1=O)NCCCCCCCC(=O)NS2(=O)=O | 3.9 | 24
4 | CCCc1nc2ccc3cc2c(=O)n1Cc1ccc(cc1)-c1ccccc1S(=O)(=O)NC(=O)CCCCCCCN3C(=O)OCc1ccccc1 | 1.5 | 75
5 | CCCc1nc2ccc(NC(=O)NC(C)C)cc2c(=O)n1Cc1ccc(-c2ccccc2S(=O)(=O)NC(=O)c2ccccc2)cc1 | 0.9 | 18
6 | CCCc1nc2ccc3cc2c(=O)n1Cc1ccc(cc1)-c1ccccc1S(=O)(=O)NC(=O)CCCCCCCN3C(=O)c1ccccc1 | 1.3 | 49
7 | CCCCCN(C(=O)c1ccccc1)c1ccc2nc(CCC)n(Cc3ccc(-c4ccccc4S(=O)(=O)NC(=O)c4ccccc4)cc3)c(=O)c2c1 | 11 | 350
8 | CCCc1ccc2c(c1)-c1ccc(cc1)Cn1c(CCC)nc3ccc(cc3c1=O)N(C(=O)OCc1ccccc1)CCCCCCCC(=O)NS2(=O)=O | 30 | 20
9 | CCCc1nc2ccc(NC(=O)c3ccccc3)cc2c(=O)n1Cc1ccc(-c2ccccc2-c2nnn[nH]2)cc1 | 0.4 | 3000
10 | CCCc1nc2ccc(NC(=O)NC(C)C)cc2c(=O)n1Cc1ccc(-c2ccccc2S(=O)(=O)NC(C)=O)cc1 | 8.8 | 630
